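Assay format: 96-well plates, 48-hour exposure. The concentration for full growth arrest is given as TGI.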
What was measured:
Experiment in all cases: DTP human tumour cell line panel, 48 h
M14 melanoma = tested on: M14 melanoma
NCI/ADR-RES ovarian = tested on: NCI/ADR-RES ovarian
MOLT-4 leukemia = tested on: MOLT-4 leukemia
SNB-19 CNS = tested on: SNB-19 CNS
IGROV1 ovarian = tested on: IGROV1 ovarian
NCI-H23 lung = tested on: NCI-H23 lung
PC-3 prostate = tested on: PC-3 prostate
HCT-116 colon = tested on: HCT-116 colon
MDA-MB-231 breast = tested on: MDA-MB-231 breast
786-0 renal = tested on: 786-0 renal
BT-549 breast = tested on: BT-549 breast
SK-MEL-5 melanoma = tested on: SK-MEL-5 melanoma
MCF7 breast = tested on: MCF7 breast
NCI-H460 lung = tested on: NCI-H460 lung
OVCAR-5 ovarian = tested on: OVCAR-5 ovarian
U251 CNS = tested on: U251 CNS
UO-31 renal = tested on: UO-31 renal
HT29 colon = tested on: HT29 colon
EKVX NSCLC = tested on: EKVX NSCLC
MALME-3M melanoma = tested on: MALME-3M melanoma
KM12 colon = tested on: KM12 colon
TK-10 renal = tested on: TK-10 renal
SF-539 CNS = tested on: SF-539 CNS
OVCAR-3 ovarian = tested on: OVCAR-3 ovarian
SNB-75 CNS = tested on: SNB-75 CNS
RXF 393 renal = tested on: RXF 393 renal
SF-295 CNS = tested on: SF-295 CNS
SK-MEL-2 melanoma = tested on: SK-MEL-2 melanoma
DU-145 prostate = tested on: DU-145 prostate
HS 578T breast = tested on: HS 578T breast
MDA-N = tested on: MDA-N
MDA-MB-435 = tested on: MDA-MB-435
HCC-2998 colon = tested on: HCC-2998 colon
HOP-92 NSCLC = tested on: HOP-92 NSCLC
SW-620 colon = tested on: SW-620 colon
CCRF-CEM leukemia = tested on: CCRF-CEM leukemia
UACC-62 melanoma = tested on: UACC-62 melanoma
OVCAR-4 ovarian = tested on: OVCAR-4 ovarian
COLO 205 colon = tested on: COLO 205 colon
A498 renal = tested on: A498 renal
A549 NSCLC = tested on: A549 NSCLC
T-47D breast = tested on: T-47D breast
HL-60(TB) leukemia = tested on: HL-60(TB) leukemia
SF-268 CNS = tested on: SF-268 CNS
RPMI-8226 leukemia = tested on: RPMI-8226 leukemia
HOP-62 NSCLC = tested on: HOP-62 NSCLC
HCT-15 colon = tested on: HCT-15 colon
OVCAR-8 ovarian = tested on: OVCAR-8 ovarian
ACHN renal = tested on: ACHN renal
K-562 leukemia = tested on: K-562 leukemia
SK-MEL-28 melanoma = tested on: SK-MEL-28 melanoma
NCI-H522 lung = tested on: NCI-H522 lung
SK-OV-3 ovarian = tested on: SK-OV-3 ovarian
SN12C renal = tested on: SN12C renal
NCI-H226 lung = tested on: NCI-H226 lung
UACC-257 melanoma = tested on: UACC-257 melanoma
SR leukemia = tested on: SR leukemia
CAKI-1 renal = tested on: CAKI-1 renal
LOX IMVI melanoma = tested on: LOX IMVI melanoma

CCN1CSC(=S)N(CC)C1
TGI (M14 melanoma): > 100 µM | TGI (NCI/ADR-RES ovarian): > 100 µM | TGI (MOLT-4 leukemia): > 100 µM | TGI (SNB-19 CNS): > 100 µM | TGI (IGROV1 ovarian): > 100 µM | TGI (NCI-H23 lung): > 100 µM | TGI (PC-3 prostate): > 100 µM | TGI (HCT-116 colon): > 100 µM | TGI (MDA-MB-231 breast): 73.9 µM | TGI (786-0 renal): > 100 µM | TGI (BT-549 breast): > 100 µM | TGI (SK-MEL-5 melanoma): > 100 µM | TGI (MCF7 breast): > 100 µM | TGI (NCI-H460 lung): > 100 µM | TGI (OVCAR-5 ovarian): > 100 µM | TGI (U251 CNS): > 100 µM | TGI (UO-31 renal): > 100 µM | TGI (HT29 colon): > 100 µM | TGI (EKVX NSCLC): > 100 µM | TGI (MALME-3M melanoma): > 100 µM | TGI (KM12 colon): > 100 µM | TGI (TK-10 renal): > 100 µM | TGI (SF-539 CNS): 76 µM | TGI (OVCAR-3 ovarian): > 100 µM | TGI (SNB-75 CNS): > 100 µM | TGI (RXF 393 renal): > 100 µM | TGI (SF-295 CNS): > 100 µM | TGI (SK-MEL-2 melanoma): > 100 µM | TGI (DU-145 prostate): > 100 µM | TGI (HS 578T breast): > 100 µM | TGI (MDA-N): > 100 µM | TGI (MDA-MB-435): > 100 µM | TGI (HCC-2998 colon): > 100 µM | TGI (HOP-92 NSCLC): > 100 µM | TGI (SW-620 colon): > 100 µM | TGI (CCRF-CEM leukemia): > 100 µM | TGI (UACC-62 melanoma): > 100 µM | TGI (OVCAR-4 ovarian): > 100 µM | TGI (COLO 205 colon): > 100 µM | TGI (A498 renal): > 100 µM | TGI (A549 NSCLC): > 100 µM | TGI (T-47D breast): > 100 µM | TGI (HL-60(TB) leukemia): 47.4 µM | TGI (SF-268 CNS): > 100 µM | TGI (RPMI-8226 leukemia): > 100 µM | TGI (HOP-62 NSCLC): 71.1 µM | TGI (HCT-15 colon): > 100 µM | TGI (OVCAR-8 ovarian): > 100 µM | TGI (ACHN renal): > 100 µM | TGI (K-562 leukemia): > 100 µM | TGI (SK-MEL-28 melanoma): > 100 µM | TGI (NCI-H522 lung): > 100 µM | TGI (SK-OV-3 ovarian): > 100 µM | TGI (SN12C renal): > 100 µM | TGI (NCI-H226 lung): > 100 µM | TGI (UACC-257 melanoma): > 100 µM

COc1cc(/C=N/Nc2nnc3c4ccccc4c4ncccc4c3n2)cc(OC)c1OC
TGI (M14 melanoma): > 10 µM | TGI (MOLT-4 leukemia): > 10 µM | TGI (SNB-19 CNS): > 10 µM | TGI (IGROV1 ovarian): > 10 µM | TGI (NCI-H23 lung): 8.25 µM | TGI (786-0 renal): > 10 µM | TGI (BT-549 breast): > 10 µM | TGI (SK-MEL-5 melanoma): > 10 µM | TGI (NCI-H460 lung): 5.68 µM | TGI (OVCAR-5 ovarian): > 10 µM | TGI (U251 CNS): > 10 µM | TGI (UO-31 renal): > 10 µM | TGI (HT29 colon): 5.4 µM | TGI (EKVX NSCLC): > 10 µM | TGI (KM12 colon): > 10 µM | TGI (TK-10 renal): > 10 µM | TGI (SF-539 CNS): > 10 µM | TGI (OVCAR-3 ovarian): > 10 µM | TGI (SNB-75 CNS): > 10 µM | TGI (RXF 393 renal): > 10 µM | TGI (SF-295 CNS): > 10 µM | TGI (DU-145 prostate): > 10 µM | TGI (HS 578T breast): > 10 µM | TGI (MDA-N): 8.09 µM | TGI (MDA-MB-435): > 10 µM | TGI (CCRF-CEM leukemia): > 10 µM | TGI (OVCAR-4 ovarian): > 10 µM | TGI (A549 NSCLC): > 10 µM | TGI (T-47D breast): 4.11 µM | TGI (HL-60(TB) leukemia): > 10 µM | TGI (SF-268 CNS): > 10 µM | TGI (OVCAR-8 ovarian): 6.58 µM | TGI (ACHN renal): > 10 µM | TGI (K-562 leukemia): > 10 µM | TGI (NCI-H522 lung): 5.75 µM | TGI (NCI-H226 lung): 9.12 µM | TGI (SR leukemia): > 10 µM | TGI (UACC-257 melanoma): 8.23 µM

COc1ccccc1Nc1nc(NNC(=O)Cc2ccccc2)nc(NNC(=O)c2ccncc2)n1
TGI (M14 melanoma): > 10 µM | TGI (NCI/ADR-RES ovarian): > 10 µM | TGI (MOLT-4 leukemia): > 10 µM | TGI (CAKI-1 renal): > 10 µM | TGI (IGROV1 ovarian): > 10 µM | TGI (NCI-H23 lung): > 10 µM | TGI (MDA-MB-231 breast): > 10 µM | TGI (786-0 renal): > 10 µM | TGI (BT-549 breast): > 10 µM | TGI (SK-MEL-5 melanoma): > 10 µM | TGI (MCF7 breast): > 10 µM | TGI (NCI-H460 lung): > 10 µM | TGI (U251 CNS): > 10 µM | TGI (HT29 colon): > 10 µM | TGI (EKVX NSCLC): > 10 µM | TGI (MALME-3M melanoma): > 10 µM | TGI (KM12 colon): > 10 µM | TGI (TK-10 renal): > 10 µM | TGI (SF-539 CNS): > 10 µM | TGI (SNB-75 CNS): > 10 µM | TGI (DU-145 prostate): > 10 µM | TGI (HS 578T breast): > 10 µM | TGI (MDA-N): > 10 µM | TGI (HCC-2998 colon): > 10 µM | TGI (HOP-92 NSCLC): > 10 µM | TGI (SW-620 colon): > 10 µM | TGI (CCRF-CEM leukemia): > 10 µM | TGI (UACC-62 melanoma): > 10 µM | TGI (OVCAR-4 ovarian): > 10 µM | TGI (COLO 205 colon): > 10 µM | TGI (A549 NSCLC): > 10 µM | TGI (T-47D breast): > 10 µM | TGI (HL-60(TB) leukemia): > 10 µM | TGI (SF-268 CNS): > 10 µM | TGI (RPMI-8226 leukemia): > 10 µM | TGI (HOP-62 NSCLC): > 10 µM | TGI (HCT-15 colon): > 10 µM | TGI (OVCAR-8 ovarian): > 10 µM | TGI (K-562 leukemia): > 10 µM | TGI (SK-MEL-28 melanoma): > 10 µM | TGI (SK-OV-3 ovarian): > 10 µM | TGI (LOX IMVI melanoma): > 10 µM | TGI (SN12C renal): > 10 µM | TGI (SR leukemia): > 10 µM | TGI (UACC-257 melanoma): > 10 µM

Cc1sc2ccccc2[n+]1CCC(=O)O
TGI (M14 melanoma): > 100 µM | TGI (NCI/ADR-RES ovarian): > 100 µM | TGI (SNB-19 CNS): > 100 µM | TGI (CAKI-1 renal): > 100 µM | TGI (IGROV1 ovarian): > 100 µM | TGI (NCI-H23 lung): > 100 µM | TGI (PC-3 prostate): > 100 µM | TGI (HCT-116 colon): > 100 µM | TGI (MDA-MB-231 breast): > 100 µM | TGI (786-0 renal): > 100 µM | TGI (BT-549 breast): > 100 µM | TGI (SK-MEL-5 melanoma): > 100 µM | TGI (MCF7 breast): > 100 µM | TGI (NCI-H460 lung): > 100 µM | TGI (OVCAR-5 ovarian): > 100 µM | TGI (U251 CNS): > 100 µM | TGI (HT29 colon): > 100 µM | TGI (EKVX NSCLC): > 100 µM | TGI (MALME-3M melanoma): > 100 µM | TGI (KM12 colon): > 100 µM | TGI (TK-10 renal): > 100 µM | TGI (SF-539 CNS): > 100 µM | TGI (OVCAR-3 ovarian): > 100 µM | TGI (SNB-75 CNS): > 100 µM | TGI (RXF 393 renal): > 100 µM | TGI (SF-295 CNS): > 100 µM | TGI (SK-MEL-2 melanoma): > 100 µM | TGI (DU-145 prostate): > 100 µM | TGI (HS 578T breast): > 100 µM | TGI (MDA-N): > 100 µM | TGI (MDA-MB-435): > 100 µM | TGI (HOP-92 NSCLC): > 100 µM | TGI (SW-620 colon): > 100 µM | TGI (UACC-62 melanoma): > 100 µM | TGI (OVCAR-4 ovarian): > 100 µM | TGI (COLO 205 colon): > 100 µM | TGI (A498 renal): > 100 µM | TGI (A549 NSCLC): > 100 µM | TGI (T-47D breast): > 100 µM | TGI (HL-60(TB) leukemia): 29.8 µM | TGI (SF-268 CNS): > 100 µM | TGI (RPMI-8226 leukemia): > 100 µM | TGI (HOP-62 NSCLC): > 100 µM | TGI (HCT-15 colon): > 100 µM | TGI (OVCAR-8 ovarian): > 100 µM | TGI (ACHN renal): > 100 µM | TGI (K-562 leukemia): > 100 µM | TGI (SK-MEL-28 melanoma): > 100 µM | TGI (NCI-H522 lung): > 100 µM | TGI (SK-OV-3 ovarian): > 100 µM | TGI (LOX IMVI melanoma): > 100 µM | TGI (SN12C renal): > 100 µM | TGI (NCI-H226 lung): > 100 µM | TGI (UACC-257 melanoma): > 100 µM

Source: PubChem BioAssay (NCI)
